Assay results: paper PMC6267684, “Pharmacokinetic evaluation of the PNC disassembler metarrestin in wild-type and Pdx1-Cre;LSL-Kras^G12D/+;Tp53^R172H/+ (KPC) mice, a genetically engineered model of pancreatic cancer” (Cancer Chemotherapy and Pharmacology, 2018)

Tested on: PNC in PC3M cells
Test: PNC disassembly assay in PC3M cells
Type: cell-based
Settings: PC3M (PTB-GFP) cells
Experimental: The PNC disassembly assay has been previously described. […] Cells were fixed with […] for 10 min at room temperature. […] Confocal images were obtained using Opera Phoenix (PerkinElmer, Waltham, MA) and a 20× objective lens.
To examine whether measured intratumor metarrestin concentrations measured in PK studies track with intracellular metarrestin concentration, we first decided to synthesize a fluorophore conjugated analog of metarrestin. Structure activity relationship studies around the structure of metarrestin were conducted in a high throughput assay that measured in dose dependence the ability of compounds to reducing PNC prevalence in PC3M cells. […] This analog was chemically conjugated to the fluorophore boron-dipyrromethene (BODIPY®) to track the disassembly of the PNC in PC3M cancer cells by confocal microscopy (Suppl. Figure 2). […] Next, to examine cellular metarrestin levels in relation to extracellular concentrations, we exposed KPC and PC3M cells at 1 and 10 µM concentrations of metarrestin and harvested cells at different timepoints.

IC50: 89 nM
Compound: N=c1c2c(-c3ccccc3)c(-c3ccccc3)n(Cc3ccccc3)c2ncn1C1CCOCC1 [NCGC00244845]
